According to US20240287463A1, “INDUCIBLE TISSUE CONSTRUCTS AND USES THEREOF” (Massachusetts Institute of Technology, priority 2020, published 2024):

Assays:
Assay type in all cases: cell-based
iCasp9-GFP J2s = test: Annexin V / SYTOX apoptosis flow cytometry; details: within the first hour after CID treatment
From the text: Inducible caspase-9 (iCasp9), which is activated by treatment with a small molecule chemical inducer of dimerization (CID; also known as rapalog, an analog of rapamycin) and leads to subsequent cell death through the intrinsic apoptosis pathway was utilized (FIG. 1A). The safety and efficacy of the iCasp9 transgene and CID have previously been shown in vitro and in vivo in animals and humans (A. Di Stasi, et al. (2011) dx.doi.org/10.1056/NEJMoa1106152; T. Gargett and M. P. Brown (2014) Front. Pharmacol. 5; K. C. Straathof, et al. (2005) Blood 105, 4247, each of which is herein incorporated by this reference). To generate inducible cells, 3T3-J2 fibroblasts (‘J2’) were transduced with lentivirus with a bidirectional expression cassette encoding iCasp9 and GFP genes (#15567 pMSCV-F-del Casp9.IRES.GFP; cloned to a lentivirus plasmid backbone with an SFFV promoter). FACS was used to enrich the infected population for the 15% highest-expression GFP+ cells. […]
After iCasp9-GFP J2 fibroblasts were exposed to CID, iCasp9 dimers were detected by staining with a caspase-9 antibody (FIG. 1C). […] To confirm that CID-triggered caspase-9 activation led to apoptosis, unfixed cells were stained with Annexin V, which binds to an early indicator of apoptosis, and SYTOX, a general marker of cell death, and analyzed by flow cytometry.

[1] = system: primary human hepatocytes; test: hepatocyte phenotypic stability (albumin production) in MPCC after fibroblast deletion; details: CID at day 1, day 3 or day 7 of 2D MPCC
From the text: Specifically, MPCC were fabricated as described previously (S. R. Khetani and S. N. Bhatia (2005) Nat. Biotechnol 26, 120; S. March et al. (2015) Nat. Protoc. 10, 2007). Briefly, collagen was adsorbed in each well of a 96 well plate (glass bottom), and then patterned using an elastomeric polydimethysiloxane mold and oxygen plasma gas ablation. Human hepatocytes were thawed and seeded (70 k/well) on the collagen islands (500 μm with 1,200 μm center-to-center spacing). Adhered hepatocytes (˜10 k/well) were allowed to spread overnight before fibroblasts were seeded for co-culture (7 k/well). Supernatant was collected from cultures every other day and stored at −20° C. Human albumin was quantified using an enzyme-linked immunosorbent assay using a sheep anti-rat albumin antibody (ELISA) (Bethyl Laboratories) and 3,3′,5,5′-tetramethylbenzidine (TMB, Thermo Fisher). Urea concentration was measured using a colorimetric (diacetylmonoxime) assay with acid and heat (Stanbio Labs). CYP3A4 activity was assessed with the luminogenic P450-GloTM CYP450 assay kit (Promega) for nonlytic assays using cultured cells. […]
To query the dependence of hepatocytes on fibroblasts, fibroblasts were deleted from MPCCs by CID treatment at various time points and albumin production was assessed as a surrogate marker of phenotypic stability.

iCasp9-GFP fibroblasts = test: viability of hydrogel-encapsulated monoculture fibroblasts
[2] = system: primary human hepatocytes; test: hepatocyte albumin and urea in tri-culture microfluidic devices; details: 50 nM CID after 5 days of tri-culture
From the text: Specifically, MPCC were fabricated as described previously (S. R. Khetani and S. N. Bhatia (2005) Nat. Biotechnol 26, 120; S. March et al. (2015) Nat. Protoc. 10, 2007). Briefly, collagen was adsorbed in each well of a 96 well plate (glass bottom), and then patterned using an elastomeric polydimethysiloxane mold and oxygen plasma gas ablation. Human hepatocytes were thawed and seeded (70 k/well) on the collagen islands (500 μm with 1,200 μm center-to-center spacing). Adhered hepatocytes (˜10 k/well) were allowed to spread overnight before fibroblasts were seeded for co-culture (7 k/well). Supernatant was collected from cultures every other day and stored at −20° C. Human albumin was quantified using an enzyme-linked immunosorbent assay using a sheep anti-rat albumin antibody (ELISA) (Bethyl Laboratories) and 3,3′,5,5′-tetramethylbenzidine (TMB, Thermo Fisher). Urea concentration was measured using a colorimetric (diacetylmonoxime) assay with acid and heat (Stanbio Labs). CYP3A4 activity was assessed with the luminogenic P450-GloTM CYP450 assay kit (Promega) for nonlytic assays using cultured cells. Cultures were pre-treated with 2 μM rifampin or 1:1,000 DMSO vehicle control prepared in hepatocyte maintenance media for 72 hours (daily replenishment) where indicated.
Given that fibroblasts are only transiently required for supporting the formation of a functional vasculature, it was investigated whether CAMEO could be used in the vascularization of tissue constructs with organ-specific parenchymal cells without negatively affecting the function of the parenchymal cells. To investigate this, a tri-culture system of HUVECs, iCasp9-HDFs, and primary human hepatocytes was employed in the microfluidic device. […] To evaluate whether the hepatocytes remained functional after CID treatment, levels of albumin and urea, markers for hepatic protein synthesis function and nitrogen metabolism, respectively, were measured in the media.

SMILES: CC[C@H](C(=O)N1CCCC[C@H]1C(=O)O[C@H](CCc1ccc(OC)c(OC)c1)c1cccc(OCC(=O)NCC(CNC(=O)COc2cccc([C@@H](CCc3ccc(OC)c(OC)c3)OC(=O)[C@@H]3CCCCN3C(=O)[C@@H](CC)c3cc(OC)c(OC)c(OC)c3)c2)CN(C)C)c1)c1cc(OC)c(OC)c(OC)c1 [CID, AP20187]
- proportion of iCasp9-GFP J2s undergoing apoptosis (iCasp9-GFP J2s): increased in a time-dependent manner
- hepatocyte phenotypic stability (albumin production) [1]: loss of hepatocyte phenotypic stability
- fibroblast viability (iCasp9-GFP fibroblasts; hydrogel-encapsulated, after 6 hours of CID): undetectable
- fibroblast regrowth (iCasp9-GFP fibroblasts; over the course of 21 days after CID): did not regrow
- secretive functions of the hepatocytes [2]: did not negatively affect
- secreted albumin versus vehicle control ([2]; day 7): statistically higher level
- secreted urea versus vehicle control ([2]; day 7): statistically higher level
